Results: patent publication US6818617B1 (Temple University- Of The Commonwealth System of Higher …, priority 1997, dated 2004)
Read-outs that look alike come from different tables or passages of the source. Where a SMILES comes first, the peptide text is derived from it. Bridges are numbered along the chain shown (N, C = ends). Where no end group is shown, it is not given here.

Columns and labels:
α4β1 [1] = target: T1, α4β1 (Homo sapiens, UniProt P05556+P13612); test: Jurkat cell adhesion to immobilized VCAM-1; assay type: cell-based
T1 construct: host or cells: Jurkat
Protocol: (§1) Adhesion of cultured cells labeled with 5-chloromethylfluorescein diacetate (CMFDA) was performed as described earlier (Marcinkiewicz et al., Blood 90:1565-1575 (1997)). […] Wells were blocked by 1% BSA in HBSS buffer. Cells were labeled with fluorescein by incubation with 12.5 AM CMFDA in HBSS buffer containing 1% BSA at 37° C. by 15 min. Unbound label was removed by washing with the same buffer. Labeled cells (1×10^5 per sample) were added to the well in the presence or absence of inhibitors and incubated at 37° C. for 30 min. Unbound cells were removed by aspiration, the wells were washed and bound cells were lysed by adding 0.5% Triton X-100. In parallel the standard curve was prepared in the same plate from known concentrations of labelled cells. The plate was read using a Cytofluor 2350 fluorescence plate reader (Millipore, Bedford, Mass.) at 485 nm EX(excitation) filter and 530 nm (emmision) filter.
The cell adhesion assay (as described in Example 1) was used to study the inhibitory effect of the eluted fractions on Jurkat cell adhesion to immobilized VCAM-1 and on K562 cell adhesion to fibronectin. Recombinant VCAM-1 (0.5 μg/well) or fibronectin (0.5 μg/well) were immobilized overnight at 4° C. on a 96-well plate (Falcon) in PBS buffer. After blocking, the CMFDA-labeled cells were added to each well in the presence of 5 μg per sample of protein from selected fractions.
Recombinant human VCAM-1 (0.5 μg/well) was immobilized in the wells of an ELISA plate overnight in PBS buffer. The plate was blocked using HBSS buffer containing 1% BSA. […] The plate was incubated for 30 minutes at 37° C. Unbound cells were removed by aspiration and the wells were washed with HBSS buffer.
(§2) The effect of each peptide on cell adhesion was determined as described above. […] Cells that attached to the plates were lysed with detergent, and fluorescence intensity was measured. Percent inhibition was measured at each concentration and IC50 was determined.

α5β1 = target: T2, α5β1 (Homo sapiens, UniProt P05556+P08648); test: K562 cell adhesion to immobilized fibronectin; assay type: cell-based; conditions: 5 μg per sample of protein from fraction
T2 construct: host or cells: K562
Protocol: as §1

α4β1 [2] = target: T3, α4β1 (UniProt G3HZ55+P13612); test: A2 (CHOα4+) cell adhesion to immobilized VCAM-1; assay type: cell-based, human; set-up: expressed in transfected cells; host or cells: CHO (A2 cells, α4+ α5+), gift of Dr. Y. Takada; conditions: A2 (CHOα4+) cells, ligand VCAM-1
Protocol: as §1, §2

αvβ3 = target: T4, αvβ3 (Homo sapiens, UniProt P05106+P06756); test: VNRC3 (CHOαvβ3+) cell adhesion to immobilized vitronectin; assay type: cell-based; conditions: VNRC3 (CHOαvβ3+) cells, ligand Vn
T4 construct: expressed in transfected cells; host or cells: CHO (VNRC3 cells), gift of Dr. M. Ginsberg
Protocol: as §1, §2

α4β1 [3] = target: T3, α4β1; test: α4B2 (CHOα4+/α5−) cell adhesion to immobilized VCAM-1; assay type: cell-based, human; set-up: expressed in transfected cells; host or cells: B2 CHO cells (α5-deficient), gift of Dr. Y. Takada; conditions: α4B2 (CHOα4+/α5−) cells, ligand VCAM-1
Protocol: as §1
Chinese hamster ovary cells transfected with human α4 integrin were provided by Dr. Y. Takada (Scripps Research Institute, La Jolla, Calif.). […] The bound cells were lysed with 0.5% Triton X-100, and fluorescence was measured.
as §2

αIIbβ3 [4] = target: T5, αIIbβ3 (Homo sapiens, UniProt P05106+P08514); test: ADP-induced platelet aggregation in platelet rich plasma (ADP PA); assay type: cell-based; set-up: endogenous in cells; host or cells: platelets in platelet rich plasma; conditions: Platelets, αIIbβ3, ligand Fg, 30 μM ADP
Protocol: (§3) Blood from a healthy donor was collected into a syringe containing sodium citrate as an anticoagulant. The anticoagulated blood was centrifuged at 400 g for 17 minutes, and platelet rich plasma (PRP) was removed by aspiration.

α4β7 = target: T6, α4β7 (Homo sapiens, UniProt P13612+P26010); test: RPMI 8866 cell adhesion to MadCAM-1; assay type: cell-based; conditions: RPMI 8866 cells, α4β7, ligand MadCAM-1
T6 construct: endogenous in cells; host or cells: JY cells (A11); RPMI 8866 cells (A12)
Protocol: as §1, §2

α4β1 and α4β7 integrins = test: Panel of α4 integrin cell adhesion assays; assay type: cell-based; conditions: at 10 μM
Protocol: as §1, §2

αIIbβ3, αvβ3, α5β1 = test: Panel of RGD-selective integrin assays (platelet aggregation and cell adhesion); assay type: cell-based; conditions: range over the panel (Table 1); read-out: concentrations of potent inhibition of αIIbβ3-dependent platelet aggregation and αIIbβ3-, αvβ3-, α5β1-dependent cell adhesion
Protocol: as §2, §3

α6β1 = target: T7, α6β1 (Homo sapiens, UniProt P05556+P23229); test: K562 (α6+) cell adhesion to laminin; assay type: cell-based
T7 construct: expressed in transfected cells; host or cells: K562 transfected with α6
Protocol: as §1, §2

αIIbβ3 [5] = target: T5, αIIbβ3; test: A5 (CHOαIIbβ3+) cell adhesion to immobilized fibrinogen; assay type: cell-based; conditions: A5 (CHOαIIbβ3+) cells, ligand Fg
Protocol: as §1, §2

[6] = tested on: lymphocyte infiltration of pancreatic Langerhans islets; test: Lymphocyte infiltration of Langerhans islets in Non Obese Diabetic (NOD) mice; assay type: in vivo, mouse; conditions: for effect on lymphocyte infiltration in pancreatic islets of NOD mice (in words): i.p. three times per week, nine weeks
Protocol: Female NOD mice from […] of age were purchased from Jackson Laboratory (Bar Harbor, Me.).
After nine weeks of treatment the animals were sacrificed by exposure to CO2. The pancreas was removed, frozen, and stored at −70° C. until the histological analysis. For the histological analysis, five μm sections of frozen tissue were fixed with acetone. For detection of infiltrating lymphocytes, the sections were stained with hematoxylin/eosin, and observed by light microscopy.

Jurkat cells = test: Adhesion of Jurkat cells to immobilized EC3; assay type: cell-based; conditions: 1 mM
Protocol: as §1
The adhesion study was performed using CMFDA-labeled Jurkat cells in the absence or presence 1 mM GRGDSP or GRGESP, or 10 μg/ml HP 2/1. Competition between EC3 and HP2/1 was also confirmed in cell suspension using FACS analysis. […] The experiment was performed using flow cytometry. […] The samples were fixed by addition of 1% paraformaldehyde before measurement of fluorescence intensity.

MV3 cells = conditions: immune deficient mice; cited from earlier work
αIIbβ3 [7] = target: T5, αIIbβ3; set-up: endogenous in cells; host or cells: platelets in platelet rich plasma; conditions: after reduction and ethylpyridylethylation; Calvete et al.; cited from earlier work
α4β1 (VLA-4) integrin = conditions: rabbit cardiac allografts; cited from earlier work

T7 sequence (P23229 24-938 limits assumed): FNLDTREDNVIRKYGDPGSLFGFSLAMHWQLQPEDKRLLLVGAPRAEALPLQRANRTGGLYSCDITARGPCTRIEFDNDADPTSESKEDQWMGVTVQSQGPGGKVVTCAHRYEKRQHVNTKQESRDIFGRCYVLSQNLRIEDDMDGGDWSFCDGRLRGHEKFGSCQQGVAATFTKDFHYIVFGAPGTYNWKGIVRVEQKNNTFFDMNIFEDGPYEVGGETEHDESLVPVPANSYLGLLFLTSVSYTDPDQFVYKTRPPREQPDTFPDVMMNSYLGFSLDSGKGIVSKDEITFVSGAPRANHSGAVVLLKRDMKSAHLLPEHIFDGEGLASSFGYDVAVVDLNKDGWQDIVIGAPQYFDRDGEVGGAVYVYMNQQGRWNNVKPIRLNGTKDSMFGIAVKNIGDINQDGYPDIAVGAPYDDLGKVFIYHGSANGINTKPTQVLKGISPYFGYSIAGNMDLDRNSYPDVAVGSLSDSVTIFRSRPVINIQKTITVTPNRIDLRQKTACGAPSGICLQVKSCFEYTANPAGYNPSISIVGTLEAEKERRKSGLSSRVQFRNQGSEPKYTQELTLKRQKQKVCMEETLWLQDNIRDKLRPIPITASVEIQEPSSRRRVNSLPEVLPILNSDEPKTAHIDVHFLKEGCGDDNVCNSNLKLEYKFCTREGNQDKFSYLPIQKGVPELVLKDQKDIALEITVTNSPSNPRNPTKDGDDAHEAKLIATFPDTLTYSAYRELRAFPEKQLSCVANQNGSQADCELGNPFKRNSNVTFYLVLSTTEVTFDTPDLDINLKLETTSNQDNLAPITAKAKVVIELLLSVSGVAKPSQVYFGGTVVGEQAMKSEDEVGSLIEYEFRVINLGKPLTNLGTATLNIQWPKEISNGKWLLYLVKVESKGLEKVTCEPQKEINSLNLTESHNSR
T7 sequence (P23229 942-1130 partner limits assumed): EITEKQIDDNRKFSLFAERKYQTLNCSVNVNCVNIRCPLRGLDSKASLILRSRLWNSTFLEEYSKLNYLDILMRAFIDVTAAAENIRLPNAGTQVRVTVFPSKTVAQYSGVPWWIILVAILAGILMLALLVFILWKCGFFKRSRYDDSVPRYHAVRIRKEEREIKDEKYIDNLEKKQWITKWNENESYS
T7 sequence (P05556 21-798): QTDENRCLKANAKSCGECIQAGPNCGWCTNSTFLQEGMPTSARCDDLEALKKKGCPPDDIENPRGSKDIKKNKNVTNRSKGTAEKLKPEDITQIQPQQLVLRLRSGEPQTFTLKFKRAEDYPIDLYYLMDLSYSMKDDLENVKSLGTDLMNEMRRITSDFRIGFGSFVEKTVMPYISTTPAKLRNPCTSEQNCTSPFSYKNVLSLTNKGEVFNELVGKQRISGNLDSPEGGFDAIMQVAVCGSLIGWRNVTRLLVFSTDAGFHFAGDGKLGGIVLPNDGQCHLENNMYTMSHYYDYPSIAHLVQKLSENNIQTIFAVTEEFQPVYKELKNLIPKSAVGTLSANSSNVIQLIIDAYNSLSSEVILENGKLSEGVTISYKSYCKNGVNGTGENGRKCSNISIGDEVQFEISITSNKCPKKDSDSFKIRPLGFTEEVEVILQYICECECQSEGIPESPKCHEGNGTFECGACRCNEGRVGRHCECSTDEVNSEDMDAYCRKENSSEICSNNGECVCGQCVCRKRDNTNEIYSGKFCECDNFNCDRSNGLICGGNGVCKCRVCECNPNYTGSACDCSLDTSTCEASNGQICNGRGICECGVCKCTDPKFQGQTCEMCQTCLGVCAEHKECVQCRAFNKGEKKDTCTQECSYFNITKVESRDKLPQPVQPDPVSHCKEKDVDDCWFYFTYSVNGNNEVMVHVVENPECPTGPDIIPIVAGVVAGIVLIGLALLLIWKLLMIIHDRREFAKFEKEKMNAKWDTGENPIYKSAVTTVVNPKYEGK
T2 sequence (P08648 42-894 limits assumed): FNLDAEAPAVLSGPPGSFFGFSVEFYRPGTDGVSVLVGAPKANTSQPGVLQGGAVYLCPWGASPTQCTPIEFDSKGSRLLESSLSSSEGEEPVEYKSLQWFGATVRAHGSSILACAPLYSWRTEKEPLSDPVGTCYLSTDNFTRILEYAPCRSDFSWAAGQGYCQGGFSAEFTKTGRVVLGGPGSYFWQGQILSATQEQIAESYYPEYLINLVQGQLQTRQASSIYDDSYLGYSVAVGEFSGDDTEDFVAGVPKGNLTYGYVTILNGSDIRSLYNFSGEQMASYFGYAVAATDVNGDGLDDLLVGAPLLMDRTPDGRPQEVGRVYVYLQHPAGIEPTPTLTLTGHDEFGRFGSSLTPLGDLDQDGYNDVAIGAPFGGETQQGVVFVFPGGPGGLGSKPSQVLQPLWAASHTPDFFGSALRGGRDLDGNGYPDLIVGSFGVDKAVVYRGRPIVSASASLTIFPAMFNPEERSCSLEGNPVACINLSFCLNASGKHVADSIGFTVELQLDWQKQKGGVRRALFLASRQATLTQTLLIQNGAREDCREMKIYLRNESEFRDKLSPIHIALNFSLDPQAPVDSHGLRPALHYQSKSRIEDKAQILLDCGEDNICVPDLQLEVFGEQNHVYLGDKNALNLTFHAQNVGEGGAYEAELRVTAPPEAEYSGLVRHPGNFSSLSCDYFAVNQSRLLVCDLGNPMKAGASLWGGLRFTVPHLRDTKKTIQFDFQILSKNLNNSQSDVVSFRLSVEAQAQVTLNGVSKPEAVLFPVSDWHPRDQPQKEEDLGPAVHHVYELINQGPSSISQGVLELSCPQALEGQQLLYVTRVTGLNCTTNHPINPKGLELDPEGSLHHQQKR
T2 sequence (P08648 895-1049 partner limits assumed): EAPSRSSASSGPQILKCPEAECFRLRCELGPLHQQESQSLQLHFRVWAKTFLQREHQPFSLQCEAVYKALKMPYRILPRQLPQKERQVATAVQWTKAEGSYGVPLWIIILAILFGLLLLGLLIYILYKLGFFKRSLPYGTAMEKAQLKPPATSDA
T2 sequence (P05556 21-798): as the sequence (P05556 21-798) above
T4 sequence (P06756 31-889 limits assumed): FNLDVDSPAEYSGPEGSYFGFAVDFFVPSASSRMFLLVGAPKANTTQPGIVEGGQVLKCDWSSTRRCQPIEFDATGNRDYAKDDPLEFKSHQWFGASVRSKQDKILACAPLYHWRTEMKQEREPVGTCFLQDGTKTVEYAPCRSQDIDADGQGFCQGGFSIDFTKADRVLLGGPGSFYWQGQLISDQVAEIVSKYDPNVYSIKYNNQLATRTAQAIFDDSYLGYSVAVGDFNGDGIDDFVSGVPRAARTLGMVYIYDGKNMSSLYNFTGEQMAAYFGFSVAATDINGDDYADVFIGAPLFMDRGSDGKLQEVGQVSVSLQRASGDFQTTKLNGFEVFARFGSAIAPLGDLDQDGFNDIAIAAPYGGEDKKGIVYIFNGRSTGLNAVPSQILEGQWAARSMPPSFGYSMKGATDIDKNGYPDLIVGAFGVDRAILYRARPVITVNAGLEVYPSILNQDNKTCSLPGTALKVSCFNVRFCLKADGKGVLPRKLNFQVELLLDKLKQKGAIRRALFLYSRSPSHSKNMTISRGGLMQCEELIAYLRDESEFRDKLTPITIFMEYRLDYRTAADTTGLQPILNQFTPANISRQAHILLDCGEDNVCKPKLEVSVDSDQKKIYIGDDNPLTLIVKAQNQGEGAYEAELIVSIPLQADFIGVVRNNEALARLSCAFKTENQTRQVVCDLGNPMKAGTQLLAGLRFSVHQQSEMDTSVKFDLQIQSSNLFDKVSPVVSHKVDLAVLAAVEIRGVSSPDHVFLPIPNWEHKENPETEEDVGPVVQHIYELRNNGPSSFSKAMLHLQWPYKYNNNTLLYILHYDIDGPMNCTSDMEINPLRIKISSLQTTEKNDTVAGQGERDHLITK
T4 sequence (P06756 891-1048 partner limits assumed): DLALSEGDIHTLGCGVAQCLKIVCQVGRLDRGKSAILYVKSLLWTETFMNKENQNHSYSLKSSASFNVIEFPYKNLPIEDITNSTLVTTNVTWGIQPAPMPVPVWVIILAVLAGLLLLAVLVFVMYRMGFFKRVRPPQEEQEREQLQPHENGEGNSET
T4 sequence (P05106 27-788): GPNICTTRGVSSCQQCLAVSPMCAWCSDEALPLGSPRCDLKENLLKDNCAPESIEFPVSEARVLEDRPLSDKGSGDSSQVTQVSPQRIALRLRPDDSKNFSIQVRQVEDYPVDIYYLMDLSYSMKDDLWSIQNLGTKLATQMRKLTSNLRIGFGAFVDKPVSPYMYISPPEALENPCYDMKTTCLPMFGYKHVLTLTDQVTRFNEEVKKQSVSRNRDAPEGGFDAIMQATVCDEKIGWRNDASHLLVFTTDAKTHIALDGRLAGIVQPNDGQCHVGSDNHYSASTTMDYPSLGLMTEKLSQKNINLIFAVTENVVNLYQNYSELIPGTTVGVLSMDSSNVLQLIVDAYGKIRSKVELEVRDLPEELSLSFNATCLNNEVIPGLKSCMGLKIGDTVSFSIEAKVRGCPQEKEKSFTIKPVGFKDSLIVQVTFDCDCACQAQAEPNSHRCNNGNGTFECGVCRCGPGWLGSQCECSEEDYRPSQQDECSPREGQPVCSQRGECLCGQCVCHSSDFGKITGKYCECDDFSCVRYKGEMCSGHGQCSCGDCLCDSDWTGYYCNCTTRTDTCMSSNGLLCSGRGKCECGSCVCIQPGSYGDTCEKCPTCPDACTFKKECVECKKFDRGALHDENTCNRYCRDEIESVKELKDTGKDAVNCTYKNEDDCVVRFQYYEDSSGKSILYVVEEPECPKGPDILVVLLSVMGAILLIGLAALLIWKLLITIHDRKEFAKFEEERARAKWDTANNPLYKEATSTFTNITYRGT

## CSCC[C@@H]1NC(=O)[C@H](C)NC(=O)[C@H](CCCNC(=N)N)NC(=O)[C@H](CCCCN)NC(=O)[C@@H](N)CSSC[C@@H](C(=O)O)NC(=O)[C@H](Cc2ccc(O)cc2)NC(=O)[C@H](CC(=O)O)NC(=O)[C@H](CC(N)=O)NC(=O)[C@H](CC(C)C)NC(=O)CNC(=O)[C@H](CC(=O)O)NC(=O)[C@H](CC(C)C)NC1=O (H-CKRAMLDGLNDYC-OH; disulfide 1-13)
α4β1 [1]
  IC50: 1 mM
α4β1 [1]; Jurkat cells / VCAM-1
  activity relative to MLDG in molar ratio: five fold more active

## CKRAMLA^7GLNDYC
α4β1 [1]
  inhibition of Jurkat cell adhesion to immobilized VCAM-1 (in words): no significant activity

## Echistatin (ECESGPCCRNCKFLKEGTICKRARGDDMDDYCNGKTCDCPRNPHKGPAT) [reference compound]
α5β1
  inhibition of binding of K562 cells to immobilized fibronectin: inhibited binding
α4β1 [2]
  IC50: > 10 µM
αvβ3
  IC50: 50 nM
α4β1 [3]
  IC50: > 10 µM
αIIbβ3 [4]
  IC50: 130 nM
α4β7
  IC50: > 10 µM
α4β1 and α4β7 integrins
  activity in α4 integrin cell adhesion assays: no detectable activity
αIIbβ3, αvβ3, α5β1
  IC50: 20 to 130 nM
α4β1 [1]; Jurkat cells, ligand VCAM-1, read-out: IC50, cell adhesion
  IC50: > 0.01 mM
α6β1; K562 (α6+) cells, α6β1, ligand Lm
  IC50: > 10 µM
α6β1; at concentration 10 μM
  inhibition of adhesion to laminin of K562 cells transfected with α6: neither echistatin nor EC3 inhibited
αIIbβ3 [5]
  IC50: 50 nM
[6]; ++ = ⅓ of the islet infiltrated, of 27 (echistatin) or 29 (EC-3) islets, nine weeks i.p.
  Number of Islets, Infiltration Score ++: 10
[6]; +++ = ½ or more of the islet infiltrated, of 27 (echistatin) or 29 (EC-3) islets, nine weeks i.p.
  Number of Islets, Infiltration Score +++: 10
[6]; NOD mice, i.p. three times per week for nine weeks, echistatin 1 μg/mouse, EC-3 3 μg/mouse, 10 animals per group
  Number of Animals without infiltration: 0
[6]; echistatin 1 μg/mouse, EC-3 3 μg/mouse
  effect on lymphocyte infiltration in pancreatic islets of NOD mice (in words): inactive
[6]; echistatin 1 μg/mouse, EC-3 3 μg/mouse, listed as echistatin
  effect on lymphocyte infiltration in pancreatic islets of NOD mice (in words): ineffective
[6]; − = no infiltration, of 27 (echistatin) or 29 (EC-3) islets, nine weeks i.p.
  Number of Islets, Infiltration Score −: 5

## GRGDSP
Jurkat cells
  effect on adhesion of Jurkat cells to immobilized EC3: not effective

## RGDS [reference compound]
α4β1 [1]; at this concentration (5 mM)
  inhibition of Jurkat cell adhesion to immobilized VCAM-1: inactive

## eristostatin: short disintegrin, potent inhibitor of αIIbβ3, SEQ ID NO:8 (QEEPCATGPCCRRCKFKRAGKVCRVARGDWNDDYCTGKSCDCPRNPWNG; ends and bridges not checked; cysteine pairing not given here; listed as Eristocophis macmahonii)
MV3 cells
  effect on human melanoma cell (MV3) metastases: inhibits human melanoma cell (MV3) metastases

## flavoridin: medium size disintegrin, SEQ ID NO:10
αIIbβ3 [7]
  decrease of ability to inhibit ADP-induced platelet aggregation: ~40 fold

## phenylacetic acid-Leu-Asp-Phe-d-Pro-amide [CS-1 peptide]
α4β1 (VLA-4) integrin
  effect on accelerated coronary arteriopathy: reduces accelerated coronary arteriopathy
